Patent publication US9708292B2, “Cyanopyrimidine derivative” (OTSUKA PHARMACEUTICAL CO., LTD., priority 2009, dated 2017)
Where a name gives a salt, the structure may show the parent alone. Read-outs that look alike come from different tables or passages of the source.

How the values were obtained:
[1] = test system: Rabbit corneal epithelium cell; test: Effect on corneal epithelium cell after UVA irradiation (neutral red uptake assay); assay type: cell-based; conditions: 60 min incubation, UVA 3.5 mW/cm^2 for 70 min, viability after 24 hours
Procedure: Test 2: Effect of the Compound of Example 1 to Corneal Epithelium Cell [Method]
Rabbit corneal epithelium cell (KURABO) was used as the cell for the test. To the rabbit corneal epithelium cell placed on 96 well plate was added the compound of Example 1, and the sample was incubated for 60 minutes. Then, the sample was irradiated with UVA (3.5 mW/cm^2) for 70 minutes using a solar simulator (SOL500). After that, the cell was washed with a buffer. After 24 hours, the cell viability was evaluated by the neutral red uptake assay.

ciliary artery = test: Vascular relaxation of isolated ciliary artery contracted with High K+-krebs solution; set-up: species or system Rabbits
Procedure: Rabbits were sacrificed with an overdose of sodium pentobarbital by intravenous administration. The eyes were enucleated and ciliary arteries were isolated. Vascular rings were cut 2 mm in length from ciliary arteries and set to Danish Multi Myograph System 610M (Danish myo technology) under microscopic observation. The vessels were equilibrated in oxygenated krebs solution with 5% CO2 and 95% O2 at 37° C.
To confirm the endothelium damage of vessels, the relaxation of ciliary artery by 100 μM carbachol was tested. If relaxation by carbachol was more than 30%, the vessels whose endothelium had no damage were used for the experiments.
After ciliary artery was contracted with High K^+-krebs solution, the compound of Example 1 was serially administrated to chamber from 0.3 μM to 300 μM. The tension was measured by Myodaq ver 2.01 (Danish myo technology).

[2] = test system: retinal ganglion cell (RGC); test: Neuroprotection: cell survival of purified retinal ganglion cells; assay type: cell-based, Long Evans rat; conditions: five days of culture, control = 0%, BDNF (50 ng/mL) = 100%, Mean ± SE
Procedure: This experiment was performed according to a method reported by Otori et al. (Invest Opthalmol Vis Sci. 39: 972-981, 1998).
Eyes were enucleated from 7 day old Long Evans rat. Retinas were isolated from the eyes. The retinas were dissociated by incubating with Neurobasal medium including 15 U/mL papain at 37° C. for 30 minutes. The retinal suspension was prepared.
The retinal suspension was incubated in anti-SIRP antibody (Chemicon)-coated flask at room temperature for 30 minutes. The non adherent cells were placed in anti-thy-1 antibody (Chemicon)-coated flask. The cells were incubated at room temperature for 30 minutes. Finally the adherent cells in flask were washed with Neurobasal medium. After centrifugation at 800 rpm for 5 minutes, the purified RGC was prepared. The cells were seeded on glass coverslips that had been coated with poly-L-lysine and laminin. The purified RGC were cultured in Neurobasal medium containing B27 supplement, 1 mM glutamine 50 ng/mL CNTF, 10 μM Forskolin. Culture was maintained at 37° C. in humidified atmosphere containing 5% CO2 and 95%, air. BDNF (50 ng/mL) or the compound of Example 1 at final concentration of 0 nM (control), 3 nM, 10 nM or 30 nM was administered immediately after cell seeding.
Cell survival (cell viability) was determined by counting stained RGC. Five days after culture started, RGC were stained with 1 μM Calcein-AM (Molecular probe). The number of RGC was counted using fluorescence microscope. The percentage of cell survival (cell viability) was calculated by using the counts of control group as 0%, and the counts of BDNF group as 100%.
The cell survival was calculated by using the counts of control groups as 0% and the counts of BDNF groups as 100%.

[3] = target: T1, adenosine A2a receptor (Human) (Homo sapiens, UniProt P29274); test: c-AMP generating action in cell expressing adenosine A2a receptor; assay type: cell-based
T1 construct: host or cells: HEK293
Procedure: Test 1: c-AMP Generating Action in Cell Expressing Adenosine A2a Receptor
The test was carried out as mentioned below with reference to the method disclosed in the reference (Klotz k. N. et al., Naunyn-Schmiedeberg's Arch. Pharmacol., (1998) 357, 1-9; Shryock J. C. et al., Molecular Pharmacology, (1998) 53, 886-893).
As to the cell to be used in the test, HEK293 cell expressing adenosine A2a receptor (Human) (PerkinElmer Life Sciences, Code No. RBHA2AC) was used.
As to the culture medium, Dulbecco's modified Eagles medium (DMEM) including 10% FBS (Fetal bovine serum) and 1 mM of sodium pyruvate was used.
The cell was placed on 96 well plate (1×10^5/well), and cultured overnight. After removing off the supernatant, 0.1 ml of DMEM (without FBS) containing 20 mM HEPES, 0.1 mM IBMX (3-isobutyl-1-methylxanthine) and 2 unit/mL adenosine deaminase were added to each well, and they were incubated at 37° C. for 30 minutes. Then, 0.1 ml of the culture medium containing the DMSO solution of the test compound in the predetermined concentration was added to each well, and they were incubated for additional 30 minutes. After removing off the supernatant, the cytolytic solution was added thereto to quench the reaction. The amount of c-AMP in each well was measured by using the c-AMP enzyme immunoassay (EIA) system (Amersham Biosciences, Code No. RPN225).
The same assay was repeated using CGS-21680 (2-p-carboxyethyl)phenethylamino-5′-N-ethylcarboxamidoadenosine hydrochloride, (Sigma, code C141) as a reference compound.
The amount of resultant c-AMP in the reference medium, caused by 1 μM of the reference compound, was defined to be 100%. The amount of resultant c-AMP in each test medium was measured, and the concentration producing 50% c-AMP amount was calculated based on the results of each test compound in the predetermined concentration, which is defined as EC50 value.

[4] = HEK293 cell expressing human adenosine A2a receptor, c-AMP by 1 μM CGS-21680 defined as 100%, read-out: A2a agonistic activity (EC50)

T1 sequence (P29274 whole entry): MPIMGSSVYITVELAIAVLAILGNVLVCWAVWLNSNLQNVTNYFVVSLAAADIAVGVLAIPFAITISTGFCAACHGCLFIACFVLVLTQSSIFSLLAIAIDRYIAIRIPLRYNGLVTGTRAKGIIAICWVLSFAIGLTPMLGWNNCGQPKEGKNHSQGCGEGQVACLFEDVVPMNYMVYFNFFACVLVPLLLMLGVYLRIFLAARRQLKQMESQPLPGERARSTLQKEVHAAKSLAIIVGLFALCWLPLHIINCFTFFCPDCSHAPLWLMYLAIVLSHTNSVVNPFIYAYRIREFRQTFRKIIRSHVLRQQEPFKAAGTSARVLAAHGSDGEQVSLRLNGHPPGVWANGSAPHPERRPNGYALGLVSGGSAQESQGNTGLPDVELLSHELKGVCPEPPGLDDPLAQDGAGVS

**Q.** Which results are given for `CC(=O)Nc1ccc(-c2nc(SCc3cccc(CCC(=O)N4CCN(CC5CCNCC5)CC4)n3)nc(N)c2C#N)cc1` [Example 1, N-(4-(6-amino-5-cyano-2-((6-(3-oxo-3-(4-(piperidin-4-yl-methyl)piperazin-1-yl)propyl)pyridin-2-yl)methylthio)-pyrimidin-4-yl)phenyl)acetamide trihydrochloride]?
**A.** cell viability ([1]; 0.25 mM): 106.3%; cell viability ([1]; 0.5 mM): 115.0%; cell viability ([1]; 1 mM): 100.7%; Relaxation (%) (ciliary artery; 0.3 μM): 2.6 ± 0.5%; Relaxation (%) (ciliary artery; 1 μM): 4.8 ± 1.2%; Relaxation (%) (ciliary artery; 3 μM): 7.9 ± 2.3%; Relaxation (%) (ciliary artery; 10 μM): 35.3 ± 14.4%; Relaxation (%) (ciliary artery; 30 μM): 65.6 ± 9.5%; Relaxation (%) (ciliary artery; 100 μM): 82.4 ± 3.7%; Relaxation (%) (ciliary artery; 300 μM): 90.1 ± 2.4%; EC50 (ciliary artery; Oryctolagus cuniculus, rabbit ciliary artery rings, High K+ contraction): 17000 nM; Cell survival (%) ([2]; 3 nM): 10.9 ± 7.0%; Cell survival (%) ([2]; 10 nM): 46.5 ± 7.0%; Cell survival (%) ([2]; 30 nM): 41.9 ± 5.5%; EC50 [3, 4]: 3.3 nM

**Q.** Which EC50 [3, 4] does the source give for `CC(=O)Nc1ccc(-c2nc(SCc3cccc(CCC(=O)N4CCN(CC5CCN(CCO)CC5)CC4)n3)nc(N)c2C#N)cc1` [Example 2, N-(4-(6-amino-5-cyano-2-((6-(3-(4-((1-(2-hydroxyethyl)-piperidin-4-yl)methyl)piperazin-1-yl)-3-oxopropyl)pyridin-2-yl)methylthio)pyrimidin-4-yl)phenyl)acetamide maleate] here?
**A.** Its EC50 is 2.9 nM.

**Q.** How did the EC50 [3, 4] turn out when `CC(=O)Nc1ccc(-c2nc(SCc3cccc(CCC(=O)N4CCN(CC5CCN(CCCO)CC5)CC4)n3)nc(N)c2C#N)cc1` [Example 3, N-(4-(6-amino-5-cyano-2-((6-(3-(4-((1-(3-hydroxy-propyl)piperidin-4-yl)methyl)piperazin-1-yl)-3-oxopropyl)-pyridin-2-yl)methylthio)pyrimidin-4-yl)phenyl)acetamide] was run?
**A.** Its EC50 is 1.8 nM.

**Q.** How did the EC50 [3] turn out when `CC(=O)Nc1ccc(-c2nc(SCc3cccc(CCC(=O)N4CCN(CC5CCN(CCF)CC5)CC4)n3)nc(N)c2C#N)cc1` [Example 4, N-(4-(6-amino-5-cyano-2-((6-(3-(4-((1-(2-fluoroethyl)-piperidin-4-yl)methyl)piperazin-1-yl)-3-oxopropyl)pyridin-2-yl)methylthio)pyrimidin-4-yl)phenyl)acetamide] was run?
**A.** Its EC50 is 6.1 nM.

**Q.** Which EC50 [3, 4] does the source give for `COC(=O)CCN1CCC(CN2CCN(C(=O)CCc3cccc(CSc4nc(N)c(C#N)c(-c5ccc(NC(C)=O)cc5)n4)n3)CC2)CC1` [Example 5, N-(4-(6-amino-5-cyano-2-((6-(3-(4-((1-(2-methoxy-carbonylethyl)piperidin-4-yl)methyl)piperazin-1-yl)-3-oxopropyl)pyridin-2-yl)methylthio)pyrimidin-4-yl)phenyl)-acetamide] here?
**A.** The EC50 was 8.4 nM.
